Experimental findings from patent publication EP4628074A1, “N-PALMITOYLETHANOLAMIDE FOR USE IN COMBINATION WITH A NON-STEROIDAL ANTI-INFLAMMATORY DRUG IN THE TREATMENT OF INFLAMMATORY PAIN” (priority 2024, dated 2025) are described below.

Assay [1] concerns inflammatory pain induced by CFA. The experiment in a line: Paw pressure test, CFA-induced inflammatory pain, chronic (14 days) oral treatment (Experiment 4). In kind it is in vivo, male Sprague-Dawley rats. The following applies: 2x2 ANOVA on percentage inhibition of mechanical hyperalgesia, PEA-OXA 5 mg/kg + diclofenac 3 mg/kg compared with diclofenac 3 mg/kg and PEA-OXA 10 mg/kg alone, interaction line = synergy. As for the experimental part:
The inflammatory pain model was induced by injecting Complete Freund's Adjuvant (CFA, Sigma-Aldrich) into the tibiotarsal joint of male Sprague-Dawley rats (Charles River), housed in 26x41 cm cages at the Animal Husbandry Centre. Laboratory Animals (Ce.S.A.L.) of the University of Florence with a 12-hour circadian cycle, water and food (standard diet) "ad libitum", temperature of 23±1°C. Intra-articular injection occurred according to the method described by Butler et al. (Pain 48:73-81,1992) after light anesthesia with 2% isoflurane. The skin surrounding the injection site was sterilized with 75% ethyl alcohol. […]
The tested molecules - used both individually and in combination - were suspended in 1% CMC and administered orally daily from day 1 to day 14 (chronic treatment). […] Inflammatory pain induced by CFA injection was measured by paw pressure test. […] The nociceptive threshold has been expressed as the force to which the animal reacts by retracting its paw or vocalizing (Leighton et al., Br J Pharmacol 93:553-560,1988). An analgesimeter (Ugo Basile, Varese) was used for this purpose, which allows the mechanical hyperalgesia to be quantified. […]
The effect on pain was analyzed using Generalized Linear Model (GLM) followed by post-hoc analysis based on Tukey-Kramer correction for multiple comparisons. The results of the analyses were expressed as mean ± standard error of the mean (SEM). […]

The subject of assay [2] is collagen-induced arthritis. The experiment in a line: Arthritis severity score in collagen-induced arthritis (CIA) (Experiment 2). In kind it is in vivo, Female Lewis rats. The following applies: for effect on arthritis score: day 31 up to end of study (day 35), oral from day 25, PEA 30 mg/kg, low-dose IBU 5 mg/kg, high-dose IBU 30 mg/kg. As for the experimental part: (§1) Rheumatoid arthritis is a disease characterized by inflammatory pain, in which the involved joints present swelling, stiffness and often erosive processes. Female Lewis rats were maintained on a 12/12 hour light/dark cycle, at constant temperature and humidity and acclimated for 1 week, with free access to water and standard diet. […] Arthritis score, change in paw volume (mL), and change in body weight (g) were measured as indicators of inflammatory pain. Arthritis severity was measured every other day starting on day 25, using the following score: 0 = no sign of arthritis; 1 = swelling and/or redness of the paw or toe; 2 = two joints involved; 3 = more than two joints involved; and 4 = severe arthritis of the entire paw and toes. The arthritis index for each subject was calculated by adding the four scores of the individual paws. The change in paw volume compared to day 21 was assessed every two days by plethysmometry (Ugo Basile) starting from day 25. The change in weight was measured for each animal on day 21 and then every two days starting from day 25.
(§2) The chosen inflammatory pain indicators were analyzed via Generalized Linear Model (GLM) followed by post-hoc analysis based on Tukey-Kramer correction for multiple comparisons. […] All analyzes were performed using SAS software, version 9.4 (SAS Institute, Cary, NC, USA). P value < 0.05 was considered significant.

In assay [3] the test system is inflammatory pain induced by sub-plantar injection of carrageenan. The experiment in a line: Von Frey filaments, inflammatory pain induced by sub-plantar injection of carrageenan (Experiment 3). It is filed as in vivo, adult male Sprague-Dawley rats. On the procedure:
The experimental inflammatory pain model was induced through a sub-plantar injection of carrageenan (CAR) saline solution (0.1 mL of a 1% suspension of CAR in 0.85% saline). […] The PEA used in this experiment was in unprocessed (native) form. Von Frey filaments were used to evaluate pain, recording for each animal the mechanical tolerance threshold, i.e. the pressure (expressed in grams) endured before retracting the paw. The measurement took place using an analgesimeter (Ugo Basile, Comerio, Varese, Italy) and was conducted before the sub-plantar injection of the CAR and at the time of maximum damage (5 hours later).
The effect on pain was analyzed using Generalized Linear Model (GLM) followed by post-hoc analysis based on Tukey-Kramer correction for multiple comparisons. […] All analyses were performed using SAS software, version 9.4 (SAS Institute, Cary, NC, USA). P value < 0.05 was considered significant.

The subject of assay [4] is collagen-induced arthritis. As to the kind of experiment: Body weight change in collagen-induced arthritis (CIA) (Experiment 2). In kind it is in vivo, Female Lewis rats. Conditions: from the 4th day of treatment (day 29) for the entire observation period, PEA 30 mg/kg, low-dose ibuprofen 5 mg/kg, high-dose IBU 30 mg/kg. On the procedure:
as §1, §2

For assay [5], the system named is CFA-induced inflammatory pain. As to the kind of experiment: Paw pressure test, CFA-induced inflammatory pain, single (acute) oral administration (Experiment 1). In kind it is in vivo, male Sprague-Dawley rats. Conditions: for p with respect to the CFA group (pain tolerance threshold): single per os administration on day 7, GLMM with Tukey-Kramer. From the text: In the in vivo experimentation, male Sprague-Dawley rats (200-250 g) (Envigo, Varese, Italy) fed "ad libitum" and housed in cages with a controlled sleep/wake cycle were used.
Before the start of the study, the animals were subjected to a 1-week acclimatization period at the Center for Laboratory Animal Sheltering (Ce.S.A.L.) of the University of Florence, following all experimental procedures and protocols compliant with the principles of care and welfare of laboratory animals approved by the Italian Ministry of Health (Italian Legislative Decree 2014/26), European directives (EU Directive 2010/63) and the ARRIVE guidelines.
In order to cause inflammatory pain, Complete Freund's Adjuvant (CFA) was injected at a rate of 50 µL into the joint cavity of the left leg between the tibiofibular and tarsal bones after light anesthesia with 2% isoflurane. The control group was subjected to the same procedure, injecting an equal volume of saline solution (vehicle).
The animals were divided into 9 groups of 6 rats each and treated acutely per os with a single administration, starting from the seventh day after the induction of joint damage. • Group 1: healthy rats subjected to intra-articular injection of saline (vehicle group) • Group 2: rats injected with CFA and treated with 1% CMC, corresponding to the vehicle in which the compounds for the treatments of the following groups were suspended (CFA group); • Group 3: rats injected with CFA and treated with micronized PEA 10 mg/kg; • Group 4: rats injected with CFA and treated with diclofenac 30 mg/kg; • Group 5: rats injected with CFA and treated with diclofenac 3 mg/kg; • Group 6: rats injected with CFA and treated with diclofenac 3 mg/kg + micronized PEA 10 mg/kg; • Group 7: rats injected with CFA and treated with meloxicam 30 mg/kg; • Group 8: rats injected with CFA and treated with meloxicam 3 mg/kg; • Group 9: rats injected with CFA and treated with meloxicam 3 mg/kg + micronized PEA 10 mg/kg.
All animals were subjected to the paw pressure test at the level of the ipsilateral paw, performed before (T0) or after 15, 30, 45 and 60 minutes after the single administration of the treatment (T15, T30, T45 and T60, respectively). In particular, the nociceptive threshold was calculated with an analgesiometer (Ugo Basile, Varese, Italy) by applying an increasing pressure at constant speed (32 g/s) by means of a non-pointed conical support on the dorsal surface of the ipsilateral paw with respect to the injection of CFA (or vehicle). The nociceptive threshold was expressed as the force (in decagrams, dag) to which the animal reacts by retracting the paw or vocalizing (Leighton GE et al. kappa-Opioid agonists produce antinociception after i.v. and i.c.v. but not intrathecal administration in the rat. Br J Pharmacol. 1988; 93: 553-60).
The values emerged from the paw pressure test in the different treatment groups were compared with each other using the Generalized Linear Mixed Model (GLMM) followed by post-hoc analysis based on Tukey-Kramer correction for multiple comparisons, referring to the single treatment group, considering all the times.
The AUC was analyzed by a two-way factor analysis of variance (2x2 ANOVA), after plotting the mean values, according to the procedure shown by Slinker BK. The statistics of synergism. J Mol Cell Cardiol. 1998 Apr;30(4):723-31. The values were expressed as mean ± standard error mean (SEM). All the statistical analyses were carried out using the software SAS, version 9.4 (SAS Institute, Cary, NC, USA). The value p < 0.05 was considered significant.

Take `CCCCCCCCCCCCCCCC1=NCCO1` [PEA-OXA, 2-pentadecyl-2-oxazoline]: the “Pr > F” value in assay [1] was <0,0001.

For `CC(C)Cc1ccc(C(C)C(=O)O)cc1` (centres unmarked) [ibuprofen], the “p versus vehicle (arthritis score)” value in assay [2] (day 31, after six days of oral treatment, PEA+IBU = PEA 30 mg/kg + ibuprofen 5 mg/kg, IBUhd = ibuprofen 30 mg/kg) was under 0.0001. For the same compound, the arthritis score in assay [2] (day 31, after six days of oral treatment, PEA+IBU = micronized PEA 30 mg/kg + ibuprofen 5 mg/kg, IBUhd = ibuprofen 30 mg/kg, mean ± SEM, vehicle 13.2 ± 0.48) was found to be 8.7 ± 0.49. The figures for the “effect on arthritis score” value in assay [2] and in assay [2] (listed as Low-dose IBUs) were “effective in reducing the arthritis score” and “had no effect”, respectively. For the same compound, the “Pr > F” value in assay [3] (2x2 factorial analysis on tolerance threshold (Von Frey), native PEA 100 mg/kg, ibuprofen 5 mg/kg, PEA*Ibu = interaction (synergy)) was 0,0111. Moreover, the “analgesic activity (tolerance threshold)” value in assay [3] (ibuprofen 30 mg/kg, single oral administration) was “shown to be active”. Moreover, in assay [3] (single oral administration 30 minutes before carrageenan, measured 5 hours later, unprocessed (native) PEA 100 mg/kg and/or ibuprofen 5 mg/kg), the “mechanical tolerance threshold compared to the vehicle-treated group” value was “equally inactive dose”. Moreover, the “effect on weight reduction induced by arthritis pain” value in assay [4] (listed as high-dose IBU) is given as “significantly counteracted”; in assay [4] (listed as low-dose ibuprofen), “neither PEA nor low-dose ibuprofen exerted any effect”.

Take `Cc1cnc(NC(=O)C2=C(O)c3ccccc3S(=O)(=O)N2C)s1` [meloxicam, Meloxicam]: in assay [5] (ANOVA 2x2 on AUC of paw pressure test (Figure 4), PEA 10 mg/kg, meloxicam 3 mg/kg, line PEA*Mel 3 = interaction (synergy)), the “Pr > F” value is recorded as under 0.0001. In addition, the “p with respect to the CFA group (pain tolerance threshold)” value in assay [5] (CFA-injected rats, NSAID 30 mg/kg) came out at 0.0001; in assay [5] (CFA-injected rats, micronized PEA 10 mg/kg and/or NSAID 3 mg/kg), 0.1405. Also, the “pain tolerance threshold with respect to the CFA group” value in assay [5] (CFA-injected rats, single per os administration on day 7 after CFA, micronized PEA 10 mg/kg and/or NSAID 3 mg/kg, T0-T60 min, all times considered) is recorded as “no significant effect”.
